Experimental data as given in US9453006B2, “Crystalline form having specific crystal habit and pharmaceutical composition containing this crystalline form as active ingredient” (POLA PHARMA INC., priority 2013, dated 2016).

Key:
Trichomonas = test: Anti-Trichomonas effect, number of survived protozoa after 72 hours culture at 37° C. (Example 4); type: cell-based; conditions: for Number of survived protozoa: cultured 72 hours at 37° C.
Description: Each of Crystal 1 and Crystal 2 was correctly weighed in an amount of 3.45 mg, which was dissolved in 10 mL of ethanol, in the same manner as in Example 3. After confirming the absence of the crystal by visual observation, 100 μL of the solution was used as an aliquot, and 900 μL of physiological saline was added thereto. The resultant solution was subjected to the sterilizing filtration by using a filter having a pore size of […] a sample or specimen. 0.5 mL of each of the specimens was added to “Trichomonas medium F” (produced by Fuji Pharma Co., Ltd.). Further, 100 μL of Trichomonas culture, which had been precultured and prepared to give 2.7×10^5 individuals/mL by adding the medium, was added, followed by being cultured for 72 hours at 37° C. (final concentration: 2.4 μg/mL). After completing the cultivation, the number of survived individuals of Trichomonas was counted by using a hemocytometer.

[1] = tested on: Trichomonas vaginalis (clinically isolated strain); test: Effect on Trichomonas vaginalis, number of survived individuals after 96 hours culture (Example 3); type: cell-based; conditions: for Number of survived individuals of Trichomonas: after 0.22 μm sterilizing filtration, cultured 96 hours
Excerpt: The effect on Trichomonas vaginalis (clinically isolated strain) of the crystal was investigated while being compared with a crystal having such a crystal habit that the (11-1) plane was the specific crystal growth plane. A solution of 10% ethanol/physiological saline was used as a control.
Crystal of Comparative Example described above was used as the crystal which had such a crystal habit that the (11-1) plane was the specific crystal growth plane. Crystal 2 was used as the crystal which had such a crystal habit that the (011) plane was the specific crystal growth plane.
Each of the crystals of luliconazole was weighed in an amount of 7.02 mg to which 10 mL of ethanol was added to dissolve the crystal. After confirming the absence of the crystal by visual observation, 100 μL of the solution was used as an aliquot, and 900 μL of physiological saline was added thereto. The resultant solution was subjected to the sterilizing filtration by using a filter having a pore size of 0.22 μm to provide a sample of 5.02 μg/mL (final concentration). 250 μL of an aliquot was taken therefrom, to which 250 μL of 10% ethanol/physiological saline was added to provide a sample of 2.51 μg/mL (final concentration).
0.5 mL of each of the samples was added to “Trichomonas medium F” (produced by Fuji Pharma Co., Ltd.), and 100 μL of Trichomonas culture (5×10^3 individuals of Trichomonas) was added thereto, followed by being cultured for 96 hours. After performing cooling for 10 minutes in ice water, the medium was stirred, which was spread on a hemocytometer to count a number of survived individuals of Trichomonas. As for a control, 0.5 mL of 10% ethanol/physiological saline was added in place of the sample. […] Further, according to the fact that the peak area ratio of the (011) plane was 26%, it is possible to estimate and acknowledge that the effect as described above is provided if I(011) with respect to the sum total of I(001), I(100), I(10-1), I(011), I(110), I(11-1), I(10-2), I(11-2), I(020), I(021), I(20-2), I(121), I(013), I(11-3), and I(221) is not less than 25%, provided that integrated intensities of diffraction peaks, which correspond to the (001), (100), (10-1), (011), (110), (11-1), (10-2), (11-2), (020), (021), (20-2), (121), (013), (11-3), and (221) planes, are designated as I(001), I(100), I(10-1), I(011), I(110), I(11-1), I(10-2), I(11-2), I(020), I(021), I(20-2), I(121), I(013), I(11-3), and I(221) respectively in relation to the diffraction peaks detected in a range of 2θ=5 to 35° in a powder X-ray diffraction pattern in which CuKα is used as an X-ray source.

[2] = sample 2.51 μg/mL (final concentration)
[3] = sample 5.02 μg/mL (final concentration)

Structure (SMILES) | anti-Trichomonas effect (Trichomonas; Crystal 1 compared with Crystal 2) | Number of survived protozoa (Trichomonas; final concentration 2.4 μg/mL) | Number of survived protozoa (Trichomonas; final concentration 4.8 μg/mL) | Number of survived protozoa (Trichomonas; final concentration 9.6 μg/mL) | suppression of the growth of Trichomonas in the vicinity of MIC ([1]; compared with the crystal having the (11-1) plane as specific crystal growth plane) | Number of survived individuals of Trichomonas [1, 2] | Number of survived individuals of Trichomonas [1, 3]
N#C/C(=C1/SC[C@@H](c2ccc(Cl)cc2Cl)S1)n1ccnc1 [Crystal 1, luliconazole] | more excellent than that of Crystal 2 | 5.57 ± 0.42 100000 individuals/mL | 0 100000 individuals/mL | 0 100000 individuals/mL |  |  | 
N#C/C(=C1/SC[C@@H](c2ccc(Cl)cc2Cl)S1)n1ccnc1 [Crystal 2, luliconazole] |  | 6.57 ± 0.60 100000 individuals/mL | 0 100000 individuals/mL | 0 100000 individuals/mL | significantly excellent | 23333 ± 5773 individuals/mL | 23333 ± 5773 individuals/mL
N#C/C(=C1/SC[C@@H](c2ccc(Cl)cc2Cl)S1)n1ccnc1 [Crystal of Comp. Ex., luliconazole, reference compound] |  |  |  |  |  | 116667 ± 15275 individuals/mL | 23333 ± 5773 individuals/mL
